Experimental data taken from US12123010B2, “Plants having increased tolerance to herbicides” (BASF SE, priority 2017, dated 2024).
Several values for one entry are separate records, joined by “and”; a condition that tells them apart may be missing. Equal entries are not always repeated.

Tests used:
[1] = tested on: Transgenic T2 Arabidopsis plants harboring PPO inhibitor tolerance trait; experiment: Lab based germination assay in 48-well plates (Table i); assay type: in vivo, Arabidopsis thaliana; conditions: construct AMATU_PPO2_TP_hemG (Escherichia coli); in comparison to wild type plants
[2] = tested on: Variant PPO Enzyme R128A, F420V (Amaranthus PPO2); experiment: biochemical; assay type: biochemical; conditions: variant R128A, F420V vs wild type
[3] = tested on: Variant PPO Enzyme F420M (Amaranthus PPO2); experiment: biochemical; assay type: biochemical; conditions: variant F420M vs wild type
[4] = tested on: Variant PPO Enzyme R128A, F420M (Amaranthus PPO2); assay type: biochemical; conditions: variant R128A, F420M vs wild type
[5] = tested on: Transgenic T2 Arabidopsis plants and ARBTH WT MC24 non-transgenic; experiment: Greenhouse post spray test, injury 14 DAT (Tables ii, iii); assay type: in vivo, Arabidopsis thaliana; conditions: for pest or weed control at 50 g/ha / pest or weed control at 100 g/ha / pest or weed control at 200 g/ha / pest or weed control at 1 g/ha / pest or weed control at 5 g/ha / pest or weed control at 10 g/ha / pest or weed control at 30 g/ha / pest or weed control at 80 g/ha: Arabidopsis thaliana, 336 h;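 on all read-outs here: value is percent injury to the sprayed plants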
[6] = tested on: Transgenic T2 or T3 Soybean plants harbouring PPO inhibitor tolerance trait; experiment: Soybean Trial, post spray, injury score 14 DAT; assay type: in vivo
Procedure: Soybean cv Jake is transformed as previously described by Siminszky et al., Phytochem Rev. 5:445-458 (2006). After regeneration, transformants are transplanted to soil in small pots, placed in growth chambers (16 hr day/8 hr night; 25° C. day/23° C. night; 65% relative humidity; 130-150 microE m-2 s-1) and subsequently tested for the presence of the T-DNA via Taqman analysis. After a few weeks, healthy, transgenic positive, single copy events are transplanted to larger pots and allowed to grow in the growth chamber. An optimal shoot for cutting is about 3-4 inches tall, with at least two nodes present. Each cutting is taken from the original transformant (mother plant) and dipped into rooting hormone powder (indole-3-butyric acid, IBA). The cutting is then placed in oasis wedges inside a bio-dome. The mother plant is taken to maturity in the greenhouse and harvested for seed. Wild type cuttings are also taken simultaneously to serve as negative controls. The cuttings are kept in the bio-dome for 5-7 days and then transplanted to 3 inch pots and then acclimated in the growth chamber for two more days. Subsequently, the cuttings are transferred to the greenhouse, acclimated for approximately 4 days prior to spray. T0 or 2-week old T1 plants are sprayed with a treatment of the uracilpyridines as disclosed SUPRA and photosynthesis inhibitor diuron as negative control. Herbicide injury evaluations are taken at 2, 7, 14 and 21 days after treatment.
Transgenic T2 or T3 Soybean plants harbouring PPO inhibitor tolerance trait, were sprayed post with the indicated amount of uracilpyridine+1% (v/v) MSO. Evaluation performed 14 Days After Treatment (DAT) and shown as injury (0-9) relative to non-transgenic treated plants. Injury Scale: 0-9, 0=no imjury, 9=maximum injury. Note: segregating lines.

[7] = biological target: Wild Type PPO Enzyme (Amaranthus PPO2, SEQ ID NO: 1) (Amaranthus tuberculatus, UniProt Q0NZW9); experiment: PPO enzyme assay (recombinant), wild type; assay type: biochemical
[8] = Table iii, ALOMY_PPO2_R137L_F438M (unnamed lines), 50 g ai/ha
[9] = Table iii, ALOMY_PPO2_R137L_F438M (unnamed lines), 100 g ai/ha

Sequence of Wild Type PPO Enzyme (Amaranthus PPO2, SEQ ID NO: 1) (Q0NZW9 1-534): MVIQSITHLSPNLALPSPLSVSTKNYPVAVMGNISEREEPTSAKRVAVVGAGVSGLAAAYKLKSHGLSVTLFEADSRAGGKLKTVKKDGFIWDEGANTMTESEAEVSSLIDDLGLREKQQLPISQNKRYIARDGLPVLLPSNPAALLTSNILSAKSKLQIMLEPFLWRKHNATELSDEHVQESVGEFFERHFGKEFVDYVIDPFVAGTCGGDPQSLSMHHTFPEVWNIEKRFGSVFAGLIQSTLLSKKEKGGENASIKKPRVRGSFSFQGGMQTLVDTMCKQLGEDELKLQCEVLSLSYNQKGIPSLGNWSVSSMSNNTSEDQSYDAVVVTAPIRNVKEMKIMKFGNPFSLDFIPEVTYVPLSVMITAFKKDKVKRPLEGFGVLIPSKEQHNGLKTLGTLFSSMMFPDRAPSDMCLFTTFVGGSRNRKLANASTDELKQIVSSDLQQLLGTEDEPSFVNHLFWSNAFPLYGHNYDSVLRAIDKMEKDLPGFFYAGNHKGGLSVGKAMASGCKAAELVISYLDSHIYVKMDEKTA

`CCOC(=O)COc1ccccc1Oc1nc(-n2c(=O)cc(C(F)(F)F)n(C)c2=O)c(F)cc1Cl` [Uracilpyridine 4, ethyl 2-[2-[[3-chloro-5-fluoro-6-[3-methyl-2,6-dioxo-4-(trifluoromethyl)pyrimidin-1-yl]-2-pyridyl]oxy]phenoxy]acetate] was tested, and the “Tolerance Factor” value [1] was 810000, the “Tolerance Factor (R/S)” value [2] was 1718 and the “Tolerance Factor (R/S)” value [3] was 55. For the same compound, the “Tolerance Factor (R/S)” value [4] was 401, the pest or weed control at 50 g/ha ([5]; Table ii, ALOMY_PPO2_R137L_F438V event F, 50 g ai/ha) was 8% and the pest or weed control at 100 g/ha ([5]; Table ii, ALOMY_PPO2_R137L_F438V event F, 100 g ai/ha) was 20%. For the same compound, the pest or weed control at 200 g/ha ([5]; Table ii, ALOMY_PPO2_R137L_F438V event F, 200 g ai/ha) was 20%, the pest or weed control at 50 g/ha ([5]; Table ii, ALOMY_PPO2_R137L_F438V event G, 50 g ai/ha) was 8% and the pest or weed control at 100 g/ha ([5]; Table ii, ALOMY_PPO2_R137L_F438V event G, 100 g ai/ha) was 15%. For the same compound, the pest or weed control at 200 g/ha ([5]; Table ii, ALOMY_PPO2_R137L_F438V event G, 200 g ai/ha) was 8%, the pest or weed control at 50 g/ha ([5]; Table ii, ALOMY_PPO2_TP_AMATU_PPO2_R128M_F420I event R, 50 g ai/ha) was 40% and the pest or weed control at 100 g/ha ([5]; Table ii, ALOMY_PPO2_TP_AMATU_PPO2_R128M_F420I event R, 100 g ai/ha) was 60%. The pest or weed control at 200 g/ha ([5]; Table ii, ALOMY_PPO2_TP_AMATU_PPO2_R128M_F420I event R, 200 g ai/ha) was 80%, the pest or weed control at 50 g/ha ([5]; Table ii, AMATU_PPO2_R128A_F420M event Q, 50 g ai/ha) was 55% and the pest or weed control at 100 g/ha ([5]; Table ii, AMATU_PPO2_R128A_F420M event Q, 100 g ai/ha) was 60%. For the same compound, the pest or weed control at 200 g/ha ([5]; Table ii, AMATU_PPO2_R128A_F420M event Q, 200 g ai/ha) was 60%, the pest or weed control at 50 g/ha ([5]; Table ii, AMATU_PPO2_R128M_F420I event K, 50 g ai/ha) was 30% and the pest or weed control at 100 g/ha ([5]; Table ii, AMATU_PPO2_R128M_F420I event K, 100 g ai/ha) was 58%. For the same compound, the pest or weed control at 200 g/ha ([5]; Table ii, AMATU_PPO2_R128M_F420I event K, 200 g ai/ha) was 73%, the pest or weed control at 50 g/ha ([5]; Table ii, AMATU_PPO2_TP_hemG event R, 50 g ai/ha) was 30% and the pest or weed control at 100 g/ha ([5]; Table ii, AMATU_PPO2_TP_hemG event R, 100 g ai/ha) was 38%. It also gave a pest or weed control at 200 g/ha ([5]; Table ii, AMATU_PPO2_TP_hemG event R, 200 g ai/ha) of 65%, a pest or weed control at 1 g/ha ([5]; Table ii, AMATU_PPO2_WT event Q, 1 g ai/ha) of 25% and a pest or weed control at 5 g/ha ([5]; Table ii, AMATU_PPO2_WT event Q, 5 g ai/ha) of 88%. For the same compound, the pest or weed control at 10 g/ha ([5]; Table ii, AMATU_PPO2_WT event Q, 10 g ai/ha) was 100%, the pest or weed control at 30 g/ha ([5]; Table ii, AMATU_PPO2_WT event Q, 30 g ai/ha) was 100% and the pest or weed control at 1 g/ha ([5]; Table ii, ARBTH WT MC24 non-transgenic, 1 g ai/ha + 1% MSO) was 100%. For the same compound, the pest or weed control at 5 g/ha ([5]; Table ii, ARBTH WT MC24 non-transgenic, 5 g ai/ha + 1% MSO) was 100%, the pest or weed control at 10 g/ha ([5]; Table ii, ARBTH WT MC24 non-transgenic, 10 g ai/ha + 1% MSO) was 100% and the pest or weed control at 30 g/ha ([5]; Table ii, ARBTH WT MC24 non-transgenic, 30 g ai/ha + 1% MSO) was 100%. The pest or weed control at 50 g/ha ([5]; Table ii, ARBTH WT MC24 non-transgenic, 50 g ai/ha + 1% MSO) was 100%, the pest or weed control at 80 g/ha ([5]; Table ii, ARBTH WT MC24 non-transgenic, 80 g ai/ha + 1% MSO) was 100% and the pest or weed control at 100 g/ha ([5]; Table ii, ARBTH WT MC24 non-transgenic, 100 g ai/ha + 1% MSO) was 100%. For the same compound, the pest or weed control at 200 g/ha ([5]; Table ii, ARBTH WT MC24 non-transgenic, 200 g ai/ha + 1% MSO) was 100%, the pest or weed control at 5 g/ha ([5]; Table ii, ARBTH_PPO1_S305L_Y426M event O, 5 g ai/ha) was 0% and the pest or weed control at 10 g/ha ([5]; Table ii, ARBTH_PPO1_S305L_Y426M event O, 10 g ai/ha) was 0%. For the same compound, the pest or weed control at 30 g/ha ([5]; Table ii, ARBTH_PPO1_S305L_Y426M event O, 30 g ai/ha) was 0%, the pest or weed control at 80 g/ha ([5]; Table ii, ARBTH_PPO1_S305L_Y426M event O, 80 g ai/ha) was 95% and the pest or weed control at 1 g/ha ([5]; Table ii, ARBTH_PPO1_WT event Q, 1 g ai/ha) was 33%. It also gave a pest or weed control at 5 g/ha ([5]; Table ii, ARBTH_PPO1_WT event Q, 5 g ai/ha) of 99%, a pest or weed control at 10 g/ha ([5]; Table ii, ARBTH_PPO1_WT event Q, 10 g ai/ha) of 100% and a pest or weed control at 30 g/ha ([5]; Table ii, ARBTH_PPO1_WT event Q, 30 g ai/ha) of 100%. The pest or weed control at 50 g/ha [5, 8] was 0%, the pest or weed control at 100 g/ha [5, 9] was 0% and the pest or weed control at 50 g/ha ([5]; Table iii, AMATU_PPO2_L397Q_F420V (unnamed lines), 50 g ai/ha) was 60%. For the same compound, the pest or weed control at 100 g/ha ([5]; Table iii, AMATU_PPO2_L397Q_F420V (unnamed lines), 100 g ai/ha) was 80%, the pest or weed control at 100 g/ha ([5]; Table iii, AMATU_PPO2_R128A_F420I (unnamed lines), 100 g ai/ha) was 55% and the pest or weed control at 50 g/ha ([5]; Table iii, AMATU_PPO2_R128A_F420V (unnamed lines), 50 g ai/ha) was 75%. The pest or weed control at 50 g/ha ([5]; Table iii, ARBTH WT MC 24 (non-transgenic), 50 g ai/ha + 1% MSO) was 100%, the pest or weed control at 100 g/ha ([5]; Table iii, ARBTH WT MC 24 (non-transgenic), 100 g ai/ha + 1% MSO) was 100% and the “injury (%)” value [5, 8] was 0%. The “injury (%)” value [5, 9] was 0%, the “injury (0-9)” value ([6]; L397E, F420M Event 2, 25 g/ha + 1% (v/v) MSO) was 0 (No Injury) and the “injury (0-9)” value ([6]; L397E, F420M Event 2, 50 g/ha + 1% (v/v) MSO) was 0 (No Injury). For the same compound, the “injury (0-9)” value ([6]; L397E, F420M Event 2, 100 g/ha + 1% (v/v) MSO) was 0 (No Injury), the “injury (0-9)” value ([6]; L397E, F420V Event 1, 25 g/ha + 1% (v/v) MSO) was 0 (No Injury) and the “injury (0-9)” value ([6]; L397E, F420V Event 1, 50 g/ha + 1% (v/v) MSO) was 0 (No Injury). For the same compound, the “injury (0-9)” value ([6]; L397E, F420V Event 1, 100 g/ha + 1% (v/v) MSO) was 0 (No Injury), the “injury (0-9)” value ([6]; L397Q, F420M Event 3, 25 g/ha + 1% (v/v) MSO) was 0 (No Injury) and the “injury (0-9)” value ([6]; L397Q, F420M Event 3, 50 g/ha + 1% (v/v) MSO) was 3. For the same compound, the “injury (0-9)” value ([6]; L397Q, F420M Event 3, 100 g/ha + 1% (v/v) MSO) was 3 and 4 and the IC50 [7] was 0.173 nM.
